Source: patent publication US10653676B2 (Dana-Farber Cancer Institute, Inc., priority 2010, dated 2020)

Assays:
USP12/UAF1/WDR20 complex = biological target: T1, USP12/UAF1/WDR20 complex (Homo sapiens, UniProt O75317); experiment: ubiquitin-AMC assay with USP12/UAF1/WDR20; type: biochemical
T1 construct: made in house; host or cells: Sf9
Experimental: (§1) FIG. 6 is a composite figure showing that C527 is a pan-deubiqutinating enzyme inhibitor […]. Ubiquitin-AMC assay was performed using purified (FIG. 6A) USP12/UAF1/WDR20 (FIG. 6B) USP5 and (FIG. 6C) UCH-L1. Enzymes were incubated with DMSO or C527 at indicated concentrations for 3 h, followed by the addition of Ub-AMC at 0.5 μM final concentration. The fluorescence at […] was measured to indicate the enzymatic activity. FIG. 6D is a summary showing the IC50 of C527 against the indicated enzymes.
(§2) The in vitro enzymatic assays were performed using purified proteins from Sf9 cells as described previously (Cohn et al.). The assays using ubiquitin-AMC (Ub-7-amido-4-methylcoumarin; Boston Biochem) as substrate was carried out in a reaction buffer containing 20 mM HEPES-KOH (pH 7.8), 20 mM NaCl, 0.1 mg/ml ovalbumin, 0.5 mM EDTA and 10 mM dithiothreitol. The fluorescence was measured by FluoStar Galaxy Fluorometer (BMG Labtech). For the Ub-vinylsulfone (VS) assay, the proteins were incubated with Ub-VS at 0.5 μM final concentration for 1 h at 30° C., followed by the immunoblotting analysis.
(§3) To examine the specificity of C527 in USP1/UAF1 inhibition, its ability to inhibit other DUB enzymes in vitro was examined. […] Moreover, the active complex of USP12 contains an additional WD40 subunit (WDR20). […]

USP5 = biological target: T2, USP5 (Homo sapiens, UniProt P45974); experiment: ubiquitin-AMC assay with USP5; type: biochemical
T2 construct: purchased Boston Biochem
T2 sequence (P45974 1-858): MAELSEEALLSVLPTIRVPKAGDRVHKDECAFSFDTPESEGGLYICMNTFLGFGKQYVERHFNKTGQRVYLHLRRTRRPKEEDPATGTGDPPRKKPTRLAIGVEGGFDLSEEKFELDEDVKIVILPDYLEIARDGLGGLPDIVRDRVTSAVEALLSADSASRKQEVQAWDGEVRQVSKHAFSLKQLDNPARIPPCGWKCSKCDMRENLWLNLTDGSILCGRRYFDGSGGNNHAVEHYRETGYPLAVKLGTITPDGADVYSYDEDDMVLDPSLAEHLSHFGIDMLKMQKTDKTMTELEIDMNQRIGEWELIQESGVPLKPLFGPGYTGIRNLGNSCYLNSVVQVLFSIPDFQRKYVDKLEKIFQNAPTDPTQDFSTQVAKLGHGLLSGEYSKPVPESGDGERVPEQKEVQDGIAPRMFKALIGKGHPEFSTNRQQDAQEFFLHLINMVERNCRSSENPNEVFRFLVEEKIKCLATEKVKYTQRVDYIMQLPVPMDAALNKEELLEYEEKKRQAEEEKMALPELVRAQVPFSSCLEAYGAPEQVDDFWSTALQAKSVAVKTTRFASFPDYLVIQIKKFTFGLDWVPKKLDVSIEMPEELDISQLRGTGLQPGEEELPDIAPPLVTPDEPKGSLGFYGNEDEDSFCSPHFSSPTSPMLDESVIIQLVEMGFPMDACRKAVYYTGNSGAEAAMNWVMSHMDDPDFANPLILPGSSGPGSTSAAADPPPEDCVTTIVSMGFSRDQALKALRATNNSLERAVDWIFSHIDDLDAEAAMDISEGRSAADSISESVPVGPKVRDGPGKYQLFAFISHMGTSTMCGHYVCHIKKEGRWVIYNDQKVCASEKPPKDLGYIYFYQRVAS
Experimental: as §1, §2, §3

U2OS-DRGFP cells = experiment: DR-GFP reporter gene conversion assay for homologous recombination repair; type: cell-based; conditions: 24 h exposure; inhibition in the 0 to 5 μM range; FIG. 8A
Experimental: FIG. 8 is a composite figure showing that C527 inhibits homologous recombination repair. […] U2OS-DRGFP cells were transfected with I-SCE-I and then exposed to C527 at the indicated concentration for 24 h. Cells were then subjected to flow cytometry analysis. The percentage of GFP positive cells was normalized by solvent vehicle treated group. […] HeLa cells, integrated with the NHEJ reporter, were treated with C527 and analyzed as described in (FIG. 8A). […] HeLa cells were pre-treated with DMSO or C527 at the indicated concentration and then exposed to camptothecin (CPT) for 1 hr. RAD51 foci were detected using immunofluorescence.
HR repair activity was analyzed using DR-GFP reporter as previously described (Pierce A J et al, Genes Dev, 13: 2633). U2OS-DRGFP cells carrying a chromosomally integrated single copy of HR repair substrate were used to test the effect of C527 on HR. DSB-induced HR results in restoration and expression of GFP and was quantified by FACS. Briefly, 24 h after induction of chromosomal double-strand breaks through the expression of I-SceI, cells were treated with C527 for 24 h. Cells were subjected to FACS analysis and the percentage of GFP-positive cells was quantitated relative to the total viable cell number. For each analysis, 100,000 cells were processed. […]

T1 sequence (O75317 whole entry, species assumed): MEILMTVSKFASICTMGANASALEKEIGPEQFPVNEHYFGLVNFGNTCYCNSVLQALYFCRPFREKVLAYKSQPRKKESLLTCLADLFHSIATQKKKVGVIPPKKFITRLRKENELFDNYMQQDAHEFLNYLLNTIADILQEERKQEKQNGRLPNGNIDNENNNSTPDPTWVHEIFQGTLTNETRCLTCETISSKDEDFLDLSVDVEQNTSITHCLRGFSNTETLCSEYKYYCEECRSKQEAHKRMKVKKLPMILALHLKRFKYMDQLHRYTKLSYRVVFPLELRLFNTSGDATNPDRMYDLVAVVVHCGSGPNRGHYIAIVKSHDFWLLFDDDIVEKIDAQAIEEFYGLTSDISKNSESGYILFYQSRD
T1 sequence (Q8TAF3 whole entry partner, species assumed): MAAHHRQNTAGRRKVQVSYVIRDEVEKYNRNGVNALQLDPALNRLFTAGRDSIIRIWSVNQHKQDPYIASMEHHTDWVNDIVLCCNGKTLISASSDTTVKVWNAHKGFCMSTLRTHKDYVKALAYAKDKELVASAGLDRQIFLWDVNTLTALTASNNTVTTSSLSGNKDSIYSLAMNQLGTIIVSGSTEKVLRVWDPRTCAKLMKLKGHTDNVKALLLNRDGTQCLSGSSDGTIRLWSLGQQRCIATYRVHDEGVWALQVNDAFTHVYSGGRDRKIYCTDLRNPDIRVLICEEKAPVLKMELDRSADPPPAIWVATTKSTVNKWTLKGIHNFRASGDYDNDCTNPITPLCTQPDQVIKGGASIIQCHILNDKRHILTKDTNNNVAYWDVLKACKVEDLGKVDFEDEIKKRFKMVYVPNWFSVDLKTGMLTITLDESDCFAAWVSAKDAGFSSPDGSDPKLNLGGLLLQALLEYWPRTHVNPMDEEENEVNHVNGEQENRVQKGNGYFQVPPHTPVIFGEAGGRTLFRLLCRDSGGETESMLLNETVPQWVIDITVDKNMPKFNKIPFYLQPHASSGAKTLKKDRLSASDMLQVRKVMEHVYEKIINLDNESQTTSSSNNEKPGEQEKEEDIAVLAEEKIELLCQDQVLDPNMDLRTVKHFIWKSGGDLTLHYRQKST
T1 sequence (Q8TBZ3 whole entry partner, species assumed): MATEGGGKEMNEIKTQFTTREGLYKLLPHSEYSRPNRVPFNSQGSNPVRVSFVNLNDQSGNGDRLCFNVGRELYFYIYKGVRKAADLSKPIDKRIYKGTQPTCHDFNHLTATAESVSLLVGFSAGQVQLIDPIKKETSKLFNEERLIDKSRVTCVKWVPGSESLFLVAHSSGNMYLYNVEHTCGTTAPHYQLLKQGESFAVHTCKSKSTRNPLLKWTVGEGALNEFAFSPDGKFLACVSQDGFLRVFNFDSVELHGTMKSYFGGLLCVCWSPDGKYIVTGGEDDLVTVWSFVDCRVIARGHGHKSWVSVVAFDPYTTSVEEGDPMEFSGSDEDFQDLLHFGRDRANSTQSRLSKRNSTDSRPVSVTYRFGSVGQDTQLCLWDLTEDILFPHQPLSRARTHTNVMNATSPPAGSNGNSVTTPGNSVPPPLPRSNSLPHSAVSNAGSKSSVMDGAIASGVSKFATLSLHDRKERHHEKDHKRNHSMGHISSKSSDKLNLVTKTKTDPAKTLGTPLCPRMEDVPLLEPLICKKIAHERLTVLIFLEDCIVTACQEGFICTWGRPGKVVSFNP

Q: What does the source list for `O=C1c2ccccc2C(=O)c2oc(-c3ccc(F)cc3)nc21` [Formula IV (527)]?
A: IC50 compared with USP1/UAF1 (USP12/UAF1/WDR20 complex; FIG. 6D): slightly higher; DUB activity of the USP12/UAF1/WDR20 complex (USP12/UAF1/WDR20 complex; in vitro, FIG. 6A): inhibited; IC50 compared with USP1/UAF1 (USP5; FIG. 6D): slightly higher; DUB activity of the USP5 enzyme (USP5; in vitro, FIG. 6B): inhibited; gene conversion (cellular GFP), HR activity (U2OS-DRGFP cells): dose-dependent decreased in gene conversion
